Where a name gives a salt, the structure may show the parent alone.
How the values were obtained:
[1] = test system: patient diagnosed with obsessive-compulsive disorder; assay: Administration of SCH 39166 capsules to a patient with obsessive-compulsive disorder; assay type: in vivo, human; settings: capsules of Example 1 containing 5.0 mg SCH 39166, once a day, six months
[2] = test system: patient diagnosed as having autism; assay: Administration of SCH 39166 capsules to a patient with autism; assay type: in vivo, human; settings: capsules of Example 1 containing 25.0 mg SCH 39166, once a day, six months

CN1CCc2cc(Cl)c(O)cc2[C@H]2c3ccccc3CC[C@@H]21 [SCH 39166, (−)-trans-6,7,7a, 8,9,13b-hexahydro-3-chloro-2-hydroxy-N-methyl-5-H-benzo[d]naphtho{2,1-b}azepine HCl]
observable symptoms of the disorder [1]: reducing or eliminating the observable symptoms of the disorder | observable symptoms of the disorder [2]: reducing or eliminating the observable symptoms of the disorder
